Source: patent publication US20200323888A1, “INHIBITORS” (VESTLANDETS INNOVASJONSSELSKAP AS, priority 2017, published 2020)
Square brackets hold non-standard residues; d marks the D form. Ends that are not written are not given here. Nle = CCCC[C@H](N)C(=O)O; CoA = coenzyme A

What was measured:
[1] = target: T1, Naa10 (Homo sapiens, UniProt P41227); experiment: Nt-acetylation inhibitor assay (DTNB), Naa10; type: biochemical; settings: selectivity, panel of human NATs
T1 sequence (P41227 1-235): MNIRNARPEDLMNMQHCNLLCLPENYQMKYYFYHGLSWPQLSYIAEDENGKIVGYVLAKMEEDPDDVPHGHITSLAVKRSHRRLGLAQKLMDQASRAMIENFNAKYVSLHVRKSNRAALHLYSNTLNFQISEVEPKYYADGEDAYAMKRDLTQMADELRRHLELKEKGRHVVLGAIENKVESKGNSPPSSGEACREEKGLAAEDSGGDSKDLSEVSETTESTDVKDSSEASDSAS
Protocol: The IC50 values for these compounds were tested as described in Foyn H, et al. (2013) “Design, Synthesis, and Kinetic Characterization of Protein N-Terminal Acetyltransferase Inhibitors”. ACS Chem Biol 8:1121-1127; and Foyn H, et al. (2017) “DTNB-Based quantification of in vitro enzymatic N-terminal acetyltransferase activity”, Methods Mol. Biol. 1574:9-15. Briefly, a colorimetric acetylation assay, 5,5′-dithiobis-(2-nitrobenzoic acid) (DTNB) assay was used to measure the catalytic activity of NATs after incubation with NAT inhibitors. […] Therefore, NTB- was quantified by measuring the absorbance at 412 nm and indirectly measures peptide Nt-acetylation. […] In order to measure CoA production, 2 mM DTNB (dissolved in 100 mM sodium phosphate dibasic pH 6.8 and 10 mM EDTA) was added to the quenched reaction and the absorbance at 412 nm was measured with a spectrophotometer (Epoc). Background absorbance (determined in negative controls) was subtracted from the absorbance determined in each individual reaction. Thiophenolate production was quantified assuming ε=13.7×103 M−1 cm−1. […] A similar Nt-acetylation reaction was performed as previously described and the enzymatic activity was quenched with a final concentration of 1% TFA and analyzed by HPLC (Evjenth R, Van Damme P, Gevaert K, Arnesen T (2013) HPLC-based Quantification of in vitro N-terminal Acetylation. Methods Mol Biol 981:95-102.). […]

[2] = target: T2, Naa80 (Homo sapiens, UniProt Q93015); experiment: Nt-acetylation inhibitor assay for Naa80; type: biochemical
T2 construct: The PCR product containing the CDS was inserted into the TOPO TA vector; made in house; host or cells: E. coli BL21 Star (DE3)
T2 sequence (Q93015 1-308 isoform Q93015-2): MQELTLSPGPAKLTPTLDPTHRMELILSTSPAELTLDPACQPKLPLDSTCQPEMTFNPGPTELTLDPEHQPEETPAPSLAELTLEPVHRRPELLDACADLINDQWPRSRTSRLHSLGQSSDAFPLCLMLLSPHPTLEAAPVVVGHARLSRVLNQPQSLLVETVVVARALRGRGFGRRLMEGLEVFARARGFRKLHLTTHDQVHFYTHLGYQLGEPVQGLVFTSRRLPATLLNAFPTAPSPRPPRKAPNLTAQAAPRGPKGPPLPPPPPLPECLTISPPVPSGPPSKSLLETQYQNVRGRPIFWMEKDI
Protocol: FIG. 10: (A) IC50 values for inhibitors measured in an Nt-acetylation inhibitor assay for Naa80. (B) Ki-values for CoA-Ac-DDDI-NH2 (SEQ ID NO: 6) for different human NATs measured in an Nt-acetylation inhibitor assay. All reactions were performed at least three times and in triplicate; errors bars represent standard deviation of each measurement.
The IC50 values for these compounds were tested as described in Foyn H, et al. (2013) “Design, Synthesis, and Kinetic Characterization of Protein N-Terminal Acetyltransferase Inhibitors”. ACS Chem Biol 8:1121-1127; and Foyn H, et al. (2017) “DTNB-Based quantification of in vitro enzymatic N-terminal acetyltransferase activity”, Methods Mol. Biol. 1574:9-15. Briefly, a colorimetric acetylation assay, 5,5′-dithiobis-(2-nitrobenzoic acid) (DTNB) assay was used to measure the catalytic activity of NATs after incubation with NAT inhibitors. In the DTNB assay, thiols present in the enzymatic product, CoA, cleaves DTNB and produces 2-nitro-5-thiobenzoate (NTB-), which absorbs light with a wavelength of 412 nm. NTB- forms in a 1:1 molar ratio to the thiol groups present in the sample. Therefore, NTB- was quantified by measuring the absorbance at 412 nm and indirectly measures peptide Nt-acetylation. […] After 30 min-60 min incubation at 37° C., the enzyme activity was quenched with quenching buffer (3.2 M guanidinium-HCl, 100 mM sodium phosphate dibasic pH 6.8). Triplicates were run for all positive samples, while negative controls were duplicated. As a negative control, reactions without enzyme were incubated at 37° C. before the reaction was quenched and added enzyme. In order to measure CoA production, 2 mM DTNB (dissolved in 100 mM sodium phosphate dibasic pH 6.8 and 10 mM EDTA) was added to the quenched reaction and the absorbance at 412 nm was measured with a spectrophotometer (Epoc). Background absorbance (determined in negative controls) was subtracted from the absorbance determined in each individual reaction. Thiophenolate production was quantified assuming ε=13.7×103 M−1 cm−1. For NatA and NatB enzyme complex inhibition, immunoprecipitation was performed using Naa15 ab (custom made, Arnesen T, Anderson D, Baldersheim C, Lanotte M, Varhaug J E, Lillehaug J R. (2005) Identification and characterization of the human ARD1-NATH protein acetyltransferase complex. Biochemical J 386(Pt 3):433-43.) or Naa20 ab (Nat5, abnova) respectively and protein A/G magnetic agarose beads (Millipore). A similar Nt-acetylation reaction was performed as previously described and the enzymatic activity was quenched with a final concentration of 1% TFA and analyzed by HPLC (Evjenth R, Van Damme P, Gevaert K, Arnesen T (2013) HPLC-based Quantification of in vitro N-terminal Acetylation. Methods Mol Biol 981:95-102.).
We then pursued Naa80 bisubstrate analogue inhibitors based on the results of the substrate screening and the sequences of the cellular substrates processed β- and γ-actin. We synthesized bisubstrate conjugates of Coenzyme A coupled to the tetrapeptides MDEL-NH2 (SEQ ID NO: 8), DDDI-NH2 (SEQ ID NO: 6), EEEI-NH2 (SEQ
ID NO: 7), and MLGT-NH2 (SEQ ID NO: 52) via an acetamide (Ac) linker.
The following additional Naa80 bisubstrate analogue inhibitors were produced and tested as described above: […]

[3] = system: zebrafish embryos; experiment: Phenotype after injection into zebrafish embryos; type: in vivo; settings: injected into zebrafish embryos; compared with reference inhibitor
Source text: A norleucine (Nle) residue was therefore tried in place of methionine in order to try to circumvent the synthesis problem.

[4] = target: T3, NatA (Homo sapiens, UniProt P41227); experiment: Nt-acetylation inhibitor assay, immunoprecipitated NatA complex, HPLC quantification; type: biochemical; settings: inhibitors tested against NatA; all compounds with C-terminal amide
T3 construct: endogenous in cells
T3 sequence (P41227 1-235): T1 sequence (P41227 1-235)
T3 sequence (Q9BXJ9 1-866 partner): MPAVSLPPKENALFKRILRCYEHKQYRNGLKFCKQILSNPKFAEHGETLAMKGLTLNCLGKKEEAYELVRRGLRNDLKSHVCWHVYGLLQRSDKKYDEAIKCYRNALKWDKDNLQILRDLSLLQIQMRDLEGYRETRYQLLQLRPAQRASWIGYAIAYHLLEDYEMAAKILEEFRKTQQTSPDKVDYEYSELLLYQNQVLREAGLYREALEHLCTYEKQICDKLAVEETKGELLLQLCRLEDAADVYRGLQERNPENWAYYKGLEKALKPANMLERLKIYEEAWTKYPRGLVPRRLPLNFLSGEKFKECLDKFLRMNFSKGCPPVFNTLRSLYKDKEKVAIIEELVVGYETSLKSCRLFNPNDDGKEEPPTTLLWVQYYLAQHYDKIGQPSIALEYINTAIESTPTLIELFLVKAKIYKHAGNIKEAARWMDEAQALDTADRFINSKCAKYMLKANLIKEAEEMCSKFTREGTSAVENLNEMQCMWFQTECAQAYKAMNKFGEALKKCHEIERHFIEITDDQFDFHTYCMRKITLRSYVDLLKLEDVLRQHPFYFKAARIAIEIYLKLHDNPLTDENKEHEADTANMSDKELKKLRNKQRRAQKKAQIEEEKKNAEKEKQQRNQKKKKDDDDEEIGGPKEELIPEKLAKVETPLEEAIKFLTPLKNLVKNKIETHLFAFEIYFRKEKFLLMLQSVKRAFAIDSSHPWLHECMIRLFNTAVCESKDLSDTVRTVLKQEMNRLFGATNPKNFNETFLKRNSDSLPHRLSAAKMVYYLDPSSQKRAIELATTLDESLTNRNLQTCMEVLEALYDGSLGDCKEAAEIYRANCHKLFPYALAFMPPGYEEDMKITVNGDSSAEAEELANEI
Protocol: The IC50 values for these compounds were tested as described in Foyn H, et al. (2013) “Design, Synthesis, and Kinetic Characterization of Protein N-Terminal Acetyltransferase Inhibitors”. ACS Chem Biol 8:1121-1127; and Foyn H, et al. (2017) “DTNB-Based quantification of in vitro enzymatic N-terminal acetyltransferase activity”, Methods Mol. Biol. 1574:9-15. Briefly, a colorimetric acetylation assay, 5,5′-dithiobis-(2-nitrobenzoic acid) (DTNB) assay was used to measure the catalytic activity of NATs after incubation with NAT inhibitors. In the DTNB assay, thiols present in the enzymatic product, CoA, cleaves DTNB and produces 2-nitro-5-thiobenzoate (NTB-), which absorbs light with a wavelength of 412 nm. NTB- forms in a 1:1 molar ratio to the thiol groups present in the sample. Therefore, NTB- was quantified by measuring the absorbance at 412 nm and indirectly measures peptide Nt-acetylation. Recombinant purified NAT enzyme was mixed with different substrate peptides (300 uM, custom-made) and Ac-CoA (300 uM) in acetylation buffer (50 mM Tris/HEPES pH 8.5-7.4, 100 mM NaCl, 10% glycerol and 0.2 mM EDTA) and with inhibitor concentration (0-500 uM). After 30 min-60 min incubation at 37° C., the enzyme activity was quenched with quenching buffer (3.2 M guanidinium-HCl, 100 mM sodium phosphate dibasic pH 6.8). Triplicates were run for all positive samples, while negative controls were duplicated. As a negative control, reactions without enzyme were incubated at 37° C. before the reaction was quenched and added enzyme. In order to measure CoA production, 2 mM DTNB (dissolved in 100 mM sodium phosphate dibasic pH 6.8 and 10 mM EDTA) was added to the quenched reaction and the absorbance at 412 nm was measured with a spectrophotometer (Epoc). Background absorbance (determined in negative controls) was subtracted from the absorbance determined in each individual reaction. Thiophenolate production was quantified assuming ε=13.7×103 M−1 cm−1. […] A similar Nt-acetylation reaction was performed as previously described and the enzymatic activity was quenched with a final concentration of 1% TFA and analyzed by HPLC (Evjenth R, Van Damme P, Gevaert K, Arnesen T (2013) HPLC-based Quantification of in vitro N-terminal Acetylation. Methods Mol Biol 981:95-102.).
In order to ensure selectivity towards NatA, the CoA-Ac-SSNIeP (SEQ ID NO: 4) was tested against other NATs. Using the Cheng-Prusoff equation for competitive inhibitors, the dissociation constant, Ki, was calculated from IC50 values and [S]/Km ratios for all the NATs.

[5] = target: T4, DDDI24
T4 chain: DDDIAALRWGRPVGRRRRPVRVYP

[6] = target: T5, MDDD24
T5 chain: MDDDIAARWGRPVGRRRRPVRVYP

[7] = target: T6, MDEL24
T6 chain: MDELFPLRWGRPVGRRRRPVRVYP

CC[C@H](C)[C@H](NC(=O)[C@H](CC(=O)O)NC(=O)[C@H](CC(=O)O)NC(=O)[C@H](CC(=O)O)NC(=O)CSCCNC(=O)CCNC(=O)C(O)C(C)(C)COP(=O)(O)OP(=O)(O)OCC1OC(n2cnc3c(N)ncnc32)C(O)C1OP(=O)(O)O)C(N)=O (stereo partly drawn) [CoA-Ac-DDDI-NH2]
reduced potency for Naa10 compared to Naa80 [1]: 88 fold
IC50 ([2]; Naa80): 380 nM
more potent Naa80 inhibitor than CoA-Ac-EEEI-NH2 ([2]; ratio of IC50 values): 3 fold
more potent Naa80 inhibitor than CoA-Ac-MDEL-NH2 ([2]; ratio of IC50 values): 3.3 fold

CoA-Ac-SSNlePK-folic acid: CoA-Ac-SS(Nle)PK (SEQ ID NO: 23) carrying folic acid as targeting moiety ({CoA-Ac}-SS[Nle]PK; not fully specified (C-terminus); also: folic acid conjugate as targeting moiety, site not given here)
phenotype in zebrafish [3]: comparable phenotypes as CoA-Ac-SSNleP-NH2

CCCC[C@H](NC(=O)[C@H](CO)NC(=O)[C@@H]1CCCN1C(=O)CSCCNC(=O)CCNC(=O)C(O)C(C)(C)COP(=O)(O)OP(=O)(O)OCC1OC(n2cnc3c(N)ncnc32)C(O)C1OP(=O)(O)O)C(=O)N1CCC[C@H]1C(N)=O (stereo partly drawn) [CoA-Ac-PS(Nle)P]
IC50 [4]: > 1 mM

B1: MBP-HishNAA80 fusion protein (MBP-Naa80) (protein)
chain: T2 sequence (Q93015 1-308 isoform Q93015-2)
substrate ranking by product formation [5]: its cellular substrate, processed β-actin, DDDI24 (SEQ ID NO: 41) ranked third
substrate ranking by product formation [6]: the second best substrate, MDDD24
product formation, fold higher compared to the second best substrate MDDD24 [7]: a 5-fold higher product formation compared to the second best substrate, MDDD24
